In one series the target is T1, vitamin D receptor (VDR) (Homo sapiens, UniProt P11473).
T1 construct: RXR partner endogenous (monkey)
T1 sequence (P11473 1-427): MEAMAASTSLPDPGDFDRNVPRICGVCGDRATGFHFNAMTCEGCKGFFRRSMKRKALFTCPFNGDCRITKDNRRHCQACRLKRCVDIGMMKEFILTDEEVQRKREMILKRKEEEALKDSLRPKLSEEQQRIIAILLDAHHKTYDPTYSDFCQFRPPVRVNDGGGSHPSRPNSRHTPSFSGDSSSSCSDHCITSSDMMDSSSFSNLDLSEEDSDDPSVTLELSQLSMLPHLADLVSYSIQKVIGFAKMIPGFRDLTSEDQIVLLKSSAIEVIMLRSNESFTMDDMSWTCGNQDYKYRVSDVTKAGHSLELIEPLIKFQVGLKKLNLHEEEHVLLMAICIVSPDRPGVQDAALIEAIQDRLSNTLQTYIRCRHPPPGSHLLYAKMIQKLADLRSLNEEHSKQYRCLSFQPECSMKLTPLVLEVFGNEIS
Nature of the series: vitamin D-dependent transcriptional activation: growth hormone production in transfected COS-1 cells. The format is cell-based. The following applies: inducer molar concentration 10^-9; total minus ethanol control. The protocol: The biological activity in vitro of chemically synthesized 1α,24(S)-(OH)2 D2 and 1α,24(R)-(OH)2 D2 was measured using a vitamin D-dependent transcriptional activation model system in which a vitamin D receptor (VDR)-expressing plasmid pSG5-hVDR1/3and a plasmid p(CT4)^4 TKGH containing a Growth Hormone (GH)-gene, under the control of a vitamin D-responsive element (VDRE) were co-transfected into Green monkey kidney, COS-1 cells. DNA's for these two vectors were supplied by Dr. Mark Haussler, Department of Biochemistry, University of Arizona, Tucson, Ariz.
Tranfected cells were incubated with vitamin D metabolites and growth hormone production was measured.

For series [1], the system named is 1,25-(OH)2 D3 receptor site. The following applies: Ishizuka et al., Steroids 1981, 1982; cited from earlier work.
For series [2], the system named is human osteoporotic patients. The following applies: humans; cited from earlier work.
The nature of series [3]: blood levels of metabolites in osteoporotic women administered 1α-OH-D2. The format is in vivo, human. The following applies: one day after a single 2 μg dose of 1α-OH-D2, women. As for the experimental part:
An increase in the production of 1α,24(S)-(OH)2 D2 relative to 1α,25-(OH)2 D2 has also been observed by the present inventors in human females who received 1α-OH-D2 as part of an investigation of that drug for the treatment of osteoporosis. Following either a single dose of 2 μg of 1α-OH-D2 or daily doses of 8 μg/day for one week, blood was collected and analyzed for the metabolites 1α,24(S)-(OH)2 D2 and 1α,25-(OH)2 D2. Lipid was extracted from the blood, and the metabolites were purified by HPLC using standard methods and quantified with the radioreceptor assay produced by Incstar (Stillwater, Minn.). One day after a single 2 μg dose, the level of 1α,24(S)-(OH)2 D2 was undetectable with the 1α,25-(OH)2 D2 level being approximately 11 pg/ml. In contrast, one day following the last dose of 8 μg, the level of 1α,24(S)-(OH)2 D2 averaged 9 pg/ml with the 1α,25-(OH)2 D2 level averaging 30 pg/ml.

The format of series [4] is in vivo, rat. The protocol: Vitamin D2 or 24-OH-D2 was administered (either oral or intraperitoneal supplementation) to vitamin D-deficient rats. Lipid extracts of the plasma were prepared and the metabolites purified by the method of Horst et al. (Horst, A. L., Koszewski, N. J. and Reinhardt, T. A., Biochem., 29:578-82 (1990)) described below for synthesyzing standard biological 1α,24-(OH)2 D2.
Standard biological 1α,24-(OH)2 D2 was synthesized in vitro from 24-OH-D2 by incubating 10 μg of 24-OH-D2 in flask containing 5 ml of 20% kidney homogenates made from vitamin D-deficient chicks. The product of this reaction was isolated by HPLC and identified by mass spectrometry.

Structures are written as SMILES. Where two headings read alike, the source gives them in different places.

In the case of `C=C1/C(=C\C=C2/CCC[C@]3(C)[C@@H]([C@H](C)/C=C/[C@](C)(O)C(C)C)CC[C@@H]23)C[C@@H](O)C[C@@H]1O` [1α,24(R)-(OH)2 D2, 1α,24(R)-dihydroxy vitamin D2], on vitamin D receptor (VDR), the “Net vitamin D-inducible GH-production” value turned out to be 36 ng/mL.

On to `C=C1/C(=C\C=C2/CCC[C@]3(C)[C@@H]([C@H](C)CC[C@@H](O)C(C)C)CC[C@@H]23)C[C@@H](O)C[C@@H]1O` [1α,24(R)-(OH)2 D3, 1α,24(R)-dihydroxyvitamin D3], for which, in series [1], the “binding to the 1,25-(OH)2 D3 receptor site relative to 1,25-(OH)2 D3” value is “more tightly than does 1,25-(OH)2 D3 itself”. As for `C=C1/C(=C\C=C2/CCC[C@]3(C)[C@@H]([C@H](C)CCCC(C)C)CC[C@@H]23)C[C@@H](O)C[C@@H]1O` [1α-(OH) D3, 1α-hydroxy vitamin D3], in series [2], the “tolerability of dosage levels of 2.0 μg/day or greater” value is recorded as “not safely obtained”.

For the molecule `C=C1/C(=C\C=C2/CCC[C@]3(C)[C@@H]([C@H](C)/C=C/[C@H](C)C(C)C)CC[C@@H]23)C[C@@H](O)C[C@@H]1O` [1α-OH-D2, 1α-hydroxy vitamin D2], in series [3], the “blood level of metabolite 1α,24(S)-(OH)2 D2” value was “undetectable”. Take `C=C1CC[C@H](O)C/C1=C/C=C1\CCC[C@]2(C)[C@@H]([C@H](C)/C=C/C(C)(O)C(C)C)CC[C@@H]12` (stereo partly shown) [24-OH-D2, 24-hydroxyvitamin D2]: the “plasma metabolite 1α,24-(OH)2 D2 found after administration” value in series [4] (rat, in vivo) is listed as “co-migrated on HPLC with the standard 1α,24-(OH)2 D2”.

As for `C=C1CC[C@H](O)C/C1=C/C=C1\CCC[C@]2(C)[C@@H]([C@H](C)/C=C/[C@H](C)C(C)C)CC[C@@H]12` [vitamin D2], in series [4] (vitamin D-deficient rats, oral or intraperitoneal, HPLC of plasma lipid extracts), the “plasma metabolite 1α,24-(OH)2 D2 found after administration” value was “co-migrated on HPLC with the standard 1α,24-(OH)2 D2”. Take `C=C1CC[C@H](O)C/C1=C/C=C1\CCC[C@]2(C)[C@@H]([C@H](C)CCCC(C)C)CC[C@@H]12` [vitamin D3]: the “24-hydroxylated metabolite in plasma after administration” value in series [4] (comparable vitamin D-deficient rats) is recorded as “no detectable 24-OH-D3”.

These data come from patent publication US6211168A, “Methods for preparation and use of 1α,24 (S)-dihydroxy vitamin D2” (Bone Care International, Inc, priority 1995, dated 2001).
